Experimental data as given in PubChem BioAssay AID489041 (Sanford-Burnham Center for Chemical Genomics, 2010).
The source made the active and inactive calls. How the calls were made is not given here.

Tested on: HEK-293T NF-kB luciferase reporter counterscreen, luminescence
Test: inhibitors of HEK-293T NF-kB luciferase – HEK-293T cells, luminescence, counter-screen for T-cell antigen receptor NF-kB inhibitors, dose response (AID 489041)

Row | SMILES | IC50
1 | CC(C)Nc1ccc(C(CC(N)=O)NC(=O)c2ccc(Br)cc2)cc1[N+](=O)[O-] (stereo not given) | > 80 µM (inactive)
2 | O=C(NCc1cccs1)C1CCN(c2ccc(S(=O)(=O)N3CCOCC3)cc2Cl)CC1 | 8.56 µM
3 | Cc1ccc(Nc2nc(-c3c(C)nc4ccccn34)cs2)cc1 | 0.59 µM
4 | CC1CCCN(c2ncnc3c2cnn3-c2ccc(Cl)cc2)C1 (stereo not given) | 8.88 µM
5 | COC(=O)c1ccc(Oc2cc(C)nc(SC)n2)cc1 | 28.8 µM (inactive)
6 | COC(=O)c1[nH]c2ccc(Br)cc2c1NC(=O)CN1CCN(C2CCCCC2)CC1 | 13.4 µM
7 | O=S(=O)(Nc1cccc2ncccc12)c1cccs1 | > 80 µM (inactive)
8 | c1ccc(-c2noc(-c3ccc4ccccc4c3)n2)nc1 | 3.2 µM
9 | Cc1noc(C)c1COc1ccc(CC(=O)NCc2ccccc2)cc1 | 20.5 µM (inactive)
10 | Cc1ccc(NC(=O)c2cc3ccccc3oc2=O)cc1S(=O)(=O)N(C)C | < 0.16 µM
11 | COC(=O)c1cn(NC(=O)c2cc([N+](=O)[O-])ccc2F)c(=O)c2ccccc12 | 4.34 µM
12 | Cc1ccc(Oc2ccc(OCC(=O)Nc3ccncc3)cc2)cc1 | 0.62 µM
13 | CC(Oc1ccc(Cl)cc1Cl)C(=O)Nc1ccncc1 (stereo not given) | 6.73 µM
14 | COc1ccc(OC)c(NS(=O)(=O)c2ccc(N3CCCC3=O)cc2)c1 | 4.36 µM
15 | Cn1cc(C(=O)N/N=C/c2c(O)ccc3ccccc23)ccc1=O | > 80 µM (inactive)
16 | CC(C)Cn1c(N)c(C(=O)CSc2ccc3c(c2)OCCO3)c(=O)n(C)c1=O | 0.85 µM
17 | O=C(Nc1ccc(N2CCOCC2)cc1)c1ccc(Cl)c(S(=O)(=O)N2CCCCC2)c1 | 1.15 µM
18 | C=CCOC(=O)c1[nH]c2c(c1C)C(=O)CC(c1ccco1)C2 (stereo not given) | < 0.16 µM
19 | CC1C/C(=C/c2ccncc2)C(=O)/C(=C/c2ccncc2)C1 (stereo not given) | 5.7 µM
20 | O=C(O)c1ccc(-c2ccc(-c3ccccc3)cc2)s1 | 9.3 µM
21 | Cc1oc(-c2ccc(Cl)cc2)nc1CS(=O)CC(=O)NCCCN1CCN(Cc2ccccc2)CC1 (stereo not given) | 4.13 µM
22 | CCOc1ccc(Br)cc1C1=CC(=O)C[C@H](c2ccc(OC)cc2)C1 | 13.7 µM
23 | COc1ccc(C(=O)NNC(=O)c2ccccn2)cc1 | 2.92 µM
24 | Cc1cccc(N2CCN(C(=O)c3ccc4[nH]c(C)c(C)c4c3)CC2)c1C | 19.2 µM
25 | Oc1ccc2ccccc2c1/C=N/Nc1nnc(-c2ncc[nH]2)c2ccccc12 | 0.52 µM

Row | SMILES | IC50
26 | COc1cc(NC(=O)N2CCNC2=O)cc(C(=O)Nc2cccc(C(F)(F)F)c2)c1 | 2.17 µM
27 | O=S(=O)(Nc1ccc(F)cc1Cl)c1ccc(-c2cnc(C3CC3)o2)cc1 | 1.78 µM
28 | O=C(N[C@@H](Cc1ccccc1)C(=O)CCl)OCc1ccccc1 | 15.9 µM
29 | CC1=CC(C)(C)N(S(=O)(=O)c2ccc(C)cc2)c2cc(C)ccc21 | 2.17 µM
30 | COc1ccc(/C=c2/sc3n(c2=O)C(c2ccccc2OC)C2=C(N=3)c3ccccc3CC2)cc1O (stereo not given) | > 80 µM (inactive)
31 | COc1ccc(-c2c(C#N)c(N)nc3c2CCc2ccccc2-3)cc1OC | 8.28 µM
32 | Cc1c(C(=O)OC2CCCC2)[nH]c2c1C(=O)CC(c1ccco1)C2 (stereo not given) | 0.45 µM
33 | COc1ccccc1-c1nnc2sc(-c3ccc(N(C)C)cc3)nn12 | 2.32 µM
34 | Cc1ccccc1NS(=O)(=O)c1ccc(N2CCCC2=O)cc1 | 42.2 µM (inactive)
35 | CC[C@@]1(O)C(=O)OCc2c1cc1n(c2=O)Cc2cc3c(N)cccc3nc2-1 | 6.02 µM
36 | COC(=O)Cc1[nH]n(-c2nc3ccccc3s2)c(=O)c1C(C)=Nc1ccc(OC)cc1 | < 0.16 µM
37 | CCOC(=O)/C=C/S(=O)(=O)c1ccc(NC(C)=O)cc1 | 20.1 µM (inactive)
38 | O=S(=O)(C/C(=C/CO)S(=O)(=O)c1ccccc1)c1ccccc1 | 6.81 µM
39 | O=C(Cc1ccc(-c2ccccc2)cc1)NCc1ccccc1 | < 0.16 µM
40 | CCN(CC)c1ccc2nc3ccc(N)cc3[n+](-c3ccccc3)c2c1 | 2.72 µM
41 | COc1ccccc1NC(=O)c1cnc(Nc2ccccc2OC)c2ccccc12 | > 80 µM (inactive)
42 | COc1ccc([C@H]2CC(=O)C=C(c3ccc(OC)cc3OC)C2)cc1 | 9.99 µM
43 | Cc1nn(-c2ccccc2Cl)c(Cl)c1/C=N/Nc1nc2ccccc2s1 | < 0.16 µM
44 | C/C=C(\C)C(=O)N[C@@H](c1ccccc1)[C@@H](O)C(=O)O[C@H]1C[C@@]2(O)[C@@H](OC(=O)c3ccccc3)C3[C@](C)(C(=O)[C@H](OC(C)=O)C(=C1C)C2(C)C)[C@H](O)C[C@H]1OC[C@@]31OC(C)=O (stereo not given in full) | > 80 µM (inactive)
45 | COc1cccc(-c2cc(C(=O)Nc3cc(C)n(Cc4ccc(Cl)cc4)n3)no2)c1 | 4.24 µM
46 | CCCC(=O)NC(c1ccccc1Cl)c1ccc2cccnc2c1O (stereo not given) | > 80 µM (inactive)
47 | COc1cccc(N2CCN(C(=O)c3cn(Cc4ccccc4)nc3-c3cccnc3)CC2)c1 | 16.4 µM
48 | CCOc1ccccc1C(=O)N1CCN(c2cccc(Cl)c2)CC1 | 2.28 µM
49 | Oc1ccc2ccccc2c1N=Nc1ccccn1 | > 80 µM (inactive)
50 | Cc1c(C(=O)OCc2ccccc2)[nH]c2c1C(=O)CC(c1ccco1)C2 (stereo not given) | 10.1 µM

Row | SMILES | IC50
51 | Nc1ncn([C@@H]2O[C@H](CO)[C@@H](O)[C@H]2O)c(=O)n1 | 4.76 µM
52 | CCOC(=O)C(C)Oc1cccc2c(=O)n(CC(=O)NCc3ccccc3)ccc12 (stereo not given) | 0.78 µM
53 | O=c1cc(-c2ccccc2)[nH]c2ccccc12 | 15.5 µM
54 | COc1ccc([C@H]2CC(=O)C=C(c3c(OC)cccc3OC)C2)cc1 | 10.2 µM
55 | c1ccc(-c2cccc(-c3ccccn3)n2)nc1 | > 80 µM (inactive)
56 | CC(=O)NC(c1ccc2ccccc2c1)c1ccc2cccnc2c1O (stereo not given) | 41.3 µM (inactive)
57 | Cc1cc2c(cc1C)C(c1ccccc1OC(C)C)CC(=O)N2 (stereo not given) | 13.3 µM
58 | COc1ccc(NC(=O)C(=O)NCC2CCCN2S(=O)(=O)c2cccs2)cc1 (stereo not given) | 21 µM (inactive)
59 | Cc1ccc(NS(=O)(=O)c2ccc(-c3cnc(C4CC4)o3)cc2)c(C)c1 | 1.47 µM
60 | CN(C)c1ccc(-c2nn3c(-c4ccccc4Cl)nnc3s2)cc1 | 19.8 µM
61 | CCCCCCCCCCn1c2c(c(=N)c3c1CCC3)CCC2 | 1.29 µM
62 | Cc1ccc(NC(=O)CSc2nc(-c3ccco3)cc(C(F)(F)F)n2)cc1C | > 80 µM (inactive)
63 | O=C(COc1ccc(C(=O)c2ccccc2)cc1)NCc1ccc(F)cc1 | 6.31 µM
64 | COc1cc2c(c(OC)c1OC)-c1ccc(OC)c(=O)cc1[C@@H](N(C)CC#CCO)CC2 | 0.56 µM
65 | CCCC[C@@H](C)C[C@@H](C)C(=O)N(C)[C@@H](CC(C)C)C(=O)N[C@H](C(=O)N(C)[C@H](C(=O)N1C[C@@H](O)C[C@H]1C(=O)N1C(=O)C=C[C@@H]1C)C(C)C)C(C)OC(C)=O (stereo not given in full) | < 0.16 µM
66 | Cc1ccc(N/C(N)=N/c2nc(CSc3nnc(C)s3)cc(=O)[nH]2)c(C)c1 | 4.17 µM
67 | Cc1ccc(O)c(NC(=O)c2cc(-c3ccccc3)on2)c1 | > 80 µM (inactive)
68 | CCOC(=O)c1[nH]c(C)c(C(=O)Nc2ccccc2C)c1C | 67.3 µM (inactive)
69 | O=C(Nc1ccncc1)C1CCCN(S(=O)(=O)c2cccc3cccnc23)C1 (stereo not given) | 35.1 µM (inactive)
70 | CCCCN1/C(=C/c2ccc3ccccc3[n+]2CC)Sc2ccccc21 | 2.02 µM
71 | CCOC(=O)N=Nc1c2ccccc2c2nc3no[nH]c3nc12 | 0.52 µM
72 | COc1ccc(-n2nnnc2-c2cccc(OC)c2)cc1 | 19.7 µM
73 | C(=N\Nc1nc2ccccc2s1)/c1ccccn1 | 1.45 µM
74 | Cc1ccc(C(=O)Nc2cc3ccccc3oc2=O)cc1 | 0.94 µM
75 | Cc1ccc(Nc2cc(C)nn2-c2nc(C)cc(=O)[nH]2)cc1 | > 80 µM (inactive)
